Holding throughout (assay type): in vitro ADME, human
For series [1], the system named is Caco-2 cell monolayer. Kind of series: Caco-2 permeability of free PEHS extract: compounds detected in transport medium, cytoplasm and membrane. Particulars: free PEHS 2500 μg/mL; for Compound detected in transport medium, Ap-Bas / Compound detected in transport medium, Bas-Ap: receiver chamber; for Compound detected in transport medium, Bas-Ap: basolateral to apical. An excerpt:
(§1) One of the aims of this study was to compare the intestinal absorption of HS compounds when the PEHS extract was in a free form or in an encapsulated formulation, using the Caco-2 model system. This model is a well-established in vitro model for the investigation of the intestinal permeability of different compounds or drugs. Prior to the transport studies, the Caco-2 cell monolayer was established and validated. Monolayer integrity and reliability were ensured by measuring the transepithelial electrical resistance (TEER) values, which remained stable during the assay with the experimental conditions assayed. Afterwards, samples from apical and basolateral compartments obtained at different time points and cytoplasmic and membrane fractions of the cell monolayer collected at the end of the assay (see Section 3.3 and Section 3.4) were analyzed by UHPLC-ESI-UHR-Qq-TOF-MS in order to identify which compounds crossed the Caco-2 cell monolayer.
(§2) To assess the potential intestinal absorption of PEHS and pure compounds, experiments were conducted using Caco-2 cells derived from human colorectal adenocarcinoma cells (obtained from the American Type Culture Collection). Cells were cultured in Dulbecco’s Modified Eagle Medium (DMEM) containing 10% (v/v) fetal bovine serum (FBS) and incubated at 37 °C in a humidified 5% CO2 air atmosphere. Cell monolayers were prepared by seeding 5 × 10^5 Caco-2cells/well on a six-well Transwell insert filter. Monolayers were used 19–22 days after seeding. The integrity of each cell monolayer was checked by measuring its transepithelial electrical resistance (TEER) with an epithelial voltohmmeter (EVOM, World Precision Instrument, Sarasota, FL, USA) before and after the experiments. The culture medium was replaced with fresh medium 24 h before the transport experiments. Compounds were added after washing the Caco-2 cell monolayer twice with pre-warmed HBSS medium (pH 7.4), in the apical or in the basolateral side, to evaluate the transport characteristics of the cells. Permeability studies were done by adding the PEHS solution at a concentration of 2500 μg/mL, quercetin at 18.1 μg/mL, quercetin-3-glucoside at 46.4 μg/mL, quercetin-3-glucuronide at 47.8 μg/mL, and N-feruloyltyramine at 31.3 μg/mL, while the receiving chamber contained the corresponding volume of transport medium. Samples were taken at different times (30, 60, 90, 120 min) and stored at −80 °C until their treatment.
(§3) After the permeation study, the Caco-2 cell monolayer was collected and the cells were lysed with three subsequent freezing-thawing cycles followed by bath sonication, of 10 min each step. Then, the samples were centrifuged during 15 min at 14,000 rpm and 4 °C, and the supernatants (cytoplasmic fraction) and the pellets (membranes) were stored at −80 °C.
(§4) The samples collected in the receiving chamber during the permeability assays were centrifuged for 15 min at 12,000 rpm and 4 °C. […] Finally, the samples were stored at −80 °C until the analysis, avoiding possible degradations.
(§5) The cytoplasms and cell membranes collected at the end of the permeability assays were subjected to protein precipitation using methanol, vortex-mixed, kept at −20 °C for 2 h and centrifuged at 12,000 rpm for 15 min at 4 °C. Finally, the supernatants were evaporated in a vacuum concentrator, dissolved in 100 μL of methanol, and then spiked with 10 μg/mL of apigenin, used as an internal standard for their analysis.
For the analysis of the samples, a Dionex Ultimate 3000 UHPLC (Thermo Scientific, Sunnyvale, CA, USA) was used coupled with an ultra-high resolution quadrupole time-of-flight mass spectrometer maXis (UHR-Qq-TOF-MS) from Bruker Daltonik (Bremen, Germany). The chromatographic separation was performed in a Zorbax Eclipse Plus C-18 column (4.6 × 150 mm, 1.8 μm) at a flow rate of 0.3 mL/min using an injection volume of 5 μL.
In general terms: Caco-2 cells form a polarised layer with tight junctions and transporters.

In series [2] the test system is Caco-2 cell monolayer. Kind of series: Caco-2 permeability of encapsulated (liposome) PEHS extract: compounds detected in transport medium, cytoplasm and membrane. Particulars: encapsulated PEHS 2500 μg/mL; for Compound detected in transport medium, Bas-Ap / Compound detected in transport medium, Ap-Bas: receiver chamber.
From the text: as §1
Primary aqueous extract was obtained from sun-dried calyces from plants harvested in Senegal, with an approximate plant-to-extract ratio of 5:1 as previously described. The purified PEHS extract was kindly provided by Monteloeder, Inc. (Elche, Alicante, Spain) and was essentially prepared as previously described. The retained phenolic fraction was finally eluted with 95% ethanol and 0.01% trifluoroacetic acid (TFA), rotatory evaporated and freeze-dried. The PEHS encapsulated formulation was performed using empty liposomes, whose final concentration was 2 mM, adding soy phosphatidylcholine to the blend. To permeabilize the liposome membrane ethanol 10% was used. The extract was dissolved in HBSS at the desired concentration (2500 μg/mL), stirred for 10 min, and finally filtered through 0.45 μm three times (PVD filter).
as §2, §3, §4

Series [3] concerns Caco-2 cell monolayer. The series is described as follows: Caco-2 permeation of pure compounds related to PEHS (individual permeability assays). Particulars: for Concentration in the receptor chamber, Basolateral-Apical Flux: 30 min (so in the source); for Concentration in the receptor chamber, Basolateral-Apical Flux / Concentration in the receptor chamber, Apical-Basolateral Flux: donor: quercetin 18.1, quercetin-3-glucoside 46.4, quercetin-3-glucuronide 47.8, N-feruloyltyramine 31.3 μg/mL, X ± SD; for Absorption across the Caco-2 intestinal barrier model (in words): pure compounds. As for the experimental part: Standard calibration curves of the compounds under study were prepared using apigenin at a concentration of 10 μg/mL as an internal standard. […] The limits of detection (LODs) and limits of quantification (LOQs) for individual compounds in standard solutions were also calculated as S/N = 3 and S/N = 10, respectively, where S/N is the signal to noise ratio (Table 3). The compound concentrations were subsequently determined using the corrected area of each individual compound (three replicates) and by interpolation in the corresponding calibration curve. Repeatability of the proposed method was measured as the relative standard deviation (RSD, %) in terms of concentration. A mixed solution containing the analytes was injected several times (n = 3) on the same day (intraday precision) and three times on three consecutive days (interday precision, n = 9). Intraday repeatability of the method developed for all the analytes was from 0.11% to 1.93%, whereas the interday repeatability ranged from 0.17% to 2.06%.
as §2, §3
The samples collected in the receiving chamber during the permeability assays were centrifuged for 15 min at 12,000 rpm and 4 °C. The supernatant was spiked with apigenin stock solution, used as an internal standard at a concentration of 10 μg/mL, in order to avoid irreproducibility of results between analyses. Finally, the samples were stored at −80 °C until the analysis, avoiding possible degradations.
as §5
For the analysis of the samples, a Dionex Ultimate 3000 UHPLC (Thermo Scientific, Sunnyvale, CA, USA) was used coupled with an ultra-high resolution quadrupole time-of-flight mass spectrometer maXis (UHR-Qq-TOF-MS) from Bruker Daltonik (Bremen, Germany). […]

[4] abbreviates: membrane fraction at end of assay, basolateral to apical.
Setting [5] is: cytoplasmic fraction at end of assay, apical to basolateral.
[6] abbreviates: membrane fraction at end of assay, apical to basolateral.

For `O=C(/C=C/c1ccc(O)c(O)c1)O[C@@H]1CC(C(=O)O)=C[C@@H](O)[C@H]1O` [5-O-caffeoylshikimic acid], in series [1] (apical to basolateral), the “Compound detected in transport medium, Ap-Bas” value is listed as “+”. The “Compound detected in transport medium, Bas-Ap” value in series [1] and in series [2] (basolateral to apical) was “+” each time.

As for `O=C(/C=C/c1ccc(O)cc1)O[C@@H]1C[C@](O)(C(=O)O)C[C@@H](O)[C@H]1O` [Coumaroylquinic acid], the “Compound detected in transport medium, Bas-Ap” value in series [1] is “+”. The “Compound detected in membrane, Bas-Ap” value in series [2] (setting [4]) is on record as “+”.

As to `O=C(/C=C/c1ccc(O)c(O)c1)O[C@H]1[C@H](O)C[C@](O)(C(=O)O)C[C@H]1O` [Cryptochlorogenic acid], the “Compound detected in transport medium, Ap-Bas” value in series [1] (apical to basolateral) and in series [2] (apical to basolateral) was “+” throughout. Further, the “Compound detected in transport medium, Bas-Ap” value in series [1] and in series [2] (basolateral to apical) was “+” in each case. The “Compound detected in cytoplasm, Ap-Bas” value in series [2] (setting [5]) is listed as “+”. Also, the “Compound detected in cytoplasm, Bas-Ap” value in series [2] (cytoplasmic fraction at end of assay, basolateral to apical) is “+”.

Consider `COC(=O)C1OC(=O)CC1(O)C(=O)OC` (stereo not drawn) [Hibiscus acid dimethylesther], for which, in series [2] (setting [5]), the “Compound detected in cytoplasm, Ap-Bas” value is “+”. In addition, in series [2] (setting [6]), the “Compound detected in membrane, Ap-Bas” value is listed as “+”. The “Compound detected in membrane, Bas-Ap” value in series [2] (setting [4]) is listed as “+”.

With `O=C1C[C@](O)(C(=O)O)[C@@H](C(=O)O)O1` [Hibiscus acid], the “Compound detected in cytoplasm, Ap-Bas” value in series [2] (setting [5]) was “+”.

On to `COC(=O)c1cc(O)c(O)c(OC(=O)c2cc(O)c(O)c(O)c2)c1` [Methyldigallate, Methyl digallate], for which the “Compound detected in transport medium, Bas-Ap” value in series [1] and in series [2] (basolateral to apical) was “+” in each case. Further, in series [2] (setting [5]), the “Compound detected in cytoplasm, Ap-Bas” value is given as “+”.

On to `COc1cc(/C=C/C(=O)NCCc2ccc(O)cc2)ccc1O` [N-feruloyltyramine], for which the “Compound detected in transport medium, Ap-Bas” value in series [1] (apical to basolateral) and in series [2] (apical to basolateral) was “+” throughout. Besides, the “Compound detected in transport medium, Bas-Ap” value in series [1] and in series [2] (basolateral to apical) was “+” in each case. The “Concentration in the receptor chamber, Basolateral-Apical Flux” value in series [3] stood at 1350 ± 40 ng/mL. Further, the “Concentration in the receptor chamber, Apical-Basolateral Flux” value (shortened to “Concentration … Apical-Basolateral Flux”) in series [3] (30 min) turned out to be 690 ± 20 ng/mL; in series [3] (60 min), 2300 ± 200 ng/mL; in series [3] (90 min) it was 4200 ± 500 ng/mL; in series [3] (120 min), 6600 ± 800 ng/mL. In addition, the “Absorption across the Caco-2 intestinal barrier model (in words)” value in series [3] is “significant absorption”.

Take `O=c1c(O[C@@H]2O[C@H](CO)[C@@H](O)[C@H](O)[C@H]2O)c(-c2ccc(O)c(O)c2)oc2cc(O)cc(O)c12` [Quercetin-3-glucoside]: the “Concentration in the receptor chamber, Basolateral-Apical Flux” value in series [3] is listed as “<LOQ”. Besides, the “Concentration … Apical-Basolateral Flux” value was “<LOQ” in series [3] (30 min), “<LOQ” in series [3] (60 min), “<LOQ” in series [3] (90 min) and 470 ± 30 ng/mL in series [3] (120 min). In addition, in series [3], the “Absorption across the Caco-2 intestinal barrier model (in words)” value is given as “lesser extent”.

In the case of `O=C(O)[C@H]1O[C@@H](Oc2c(-c3ccc(O)c(O)c3)oc3cc(O)cc(O)c3c2=O)[C@H](O)[C@@H](O)[C@@H]1O` [Quercetin-3-glucuronide], the “Concentration in the receptor chamber, Basolateral-Apical Flux” value in series [3] is listed as “<LOQ”. The “Concentration … Apical-Basolateral Flux” value in series [3] (30 min) is listed as “not detected”; in series [3] (60 min), “not detected”; in series [3] (90 min), “not detected”; in series [3] (120 min), “<LOQ”. Further, in series [3], the “Absorption across the Caco-2 intestinal barrier model (in words)” value was “lesser extent”.

As for `O=c1c(O)c(-c2ccc(O)c(O)c2)oc2cc(O)cc(O)c12` [Quercetin], the “Compound detected in cytoplasm, Ap-Bas” value in series [1] (setting [5]) and in series [2] (setting [5]) was “+” each time. The “Compound detected in membrane, Ap-Bas” value in series [1] (setting [6]) is reported as “+”. Besides, the “Compound detected in transport medium, Ap-Bas” value in series [1] (apical to basolateral) was “+”. Further, the “Compound detected in transport medium, Bas-Ap” value in series [1] is reported as “+”. The “Concentration in the receptor chamber, Basolateral-Apical Flux” value in series [3] came out at 1100 ± 400 ng/mL. Also, the “Concentration … Apical-Basolateral Flux” value in series [3] (30 min) was determined as 280 ± 20 ng/mL; in series [3] (60 min) it was 490 ± 30 ng/mL; in series [3] (90 min) it was 1330 ± 20 ng/mL; in series [3] (120 min), 1320 ± 10 ng/mL. For the same molecule, the “Time at which maximum permeation / maximum concentration was reached” value in series [3] (both flux directions, sampling at 30, 60, 90, 120 min) is listed as 90 min. Further, the “Final concentration in the basolateral-apical flux relative to the opposite flux” value in series [3] (end of assay) is “around five-fold”. In series [3], the “Absorption across the Caco-2 intestinal barrier model (in words)” value is listed as “significant absorption”.

Regarding Methylepigallocatechin, the “Compound detected in transport medium, Bas-Ap” value in series [1] is listed as “+”.
